This is an account of results in patent US4962109A, “Insecticidally and acaricidally active pyrimidine esters and intermediates therefor” (Imperial Chemical Industries PLC, priority 1985, dated 1990).

Each structure is given as a SMILES string. Where two headings read alike, the source gives them in different places.

Common to all, as to format: in vivo
Test [1] has as its system Tetranychus urticae (spider mites - adult). In words: Contact test on spider mites - adult (TUa), French bean leaf, mortality. The following applies: 72 h, read-out: TUa grading of mortality. The method in brief: (§1)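 Pests were supported on a host plant or food medium, and either or both were treated with preparations at 500, 250 or 100 ppm by weight. Mortality was assessed one to three days afterwards and banded into three grades, from A (80-100%) down to C (under 50%).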

Test [2] relates to Tetranychus urticae (spider mites - ova). In words: Contact test on spider mites - ova (TUe), French bean leaf, mortality. Conditions: 144 h, read-out: TUe grading of mortality. The method in brief:
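Graded read-out: A 80-100%, B 50-79%, C below 50% mortality or knockdown, assessed usually 1-3 days post-treatment. Liquid preparations at 500, 250 or 100 ppm by weight, from acetone solution diluted in water with 0.01% wetting agent, applied to pests and/or their host plant or food medium.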

For another test, the system named is Myzus persicae (aphids). In words: Contact test on aphids (MP), Chinese Cabbage leaf, mortality. Conditions: 72 h, read-out: MP grading of mortality. The method in brief: as §1
The test system of test [3] is Nephotettix cincticeps (green leaf hopper - nymphs). In words: Contact test on green leaf hopper nymphs (NC), Rice plant, mortality. The following applies: 48 h, read-out: NC grading of mortality. The method in brief:
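Product dissolved in acetone, diluted in water with 0.01% wetting agent to 500, 250 or 100 ppm; nymphs and/or host rice plants treated. Mortality or knockdown assessed 1–3 days later, graded A (80-100%), B (50-79%), C (<50%).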

For test [4], the system named is Musca domestica (houseflies - adults). In words: Knockdown test on houseflies - adults (MD/KD), Cotton wool/sugar. The following applies: 500 ppm, 4 hours, read-out: MD/KD grading of knockdown. In a few lines:
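Adult houseflies exposed to the compound at 500, 250 or 100 ppm in acetone/water with 0.01% wetting agent, on a cotton wool/sugar medium. Knockdown and mortality assessed, graded A (80-100%), B (50-79%) or C (<50%).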

The test system is the same in test [5]. In words: Contact test on houseflies - adults (MD), Cotton wool/sugar, mortality. Conditions: 72 h, read-out: MD grading of mortality. The method in brief: as §1
Test [6] deals with Blattella germanica (cockroach nymphs). In words: Contact test on cockroach nymphs (BG/C), Plastic pot, mortality. Conditions: 48 h, read-out: BG/C grading of mortality. In a few lines: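 Cockroach nymphs and/or their medium were treated with aqueous preparations at 500, 250 or 100 ppm (acetone solution diluted in water with 0.01% Lissapol NX wetting agent). Mortality or knockdown was assessed typically 1–3 days later and graded A (80–100%), B (50–79%) or C (<50%).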

For test [7], the system named is Heliothis virescens (tobacco budworm - larvae). In words: Residual test on tobacco budworm larvae (HV), Cotton leaf, mortality. The following applies: 48 h, read-out: HV grading of mortality. The method in brief:
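Product in acetone diluted with water containing 0.01% Lissapol NX, at 500, 250 or 100 ppm; pests and/or host medium (here cotton leaf) treated. Mortality scored one to three days later, graded A (80-100%), B (50-79%), C (<50%).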

In test [8] the test system is Spodoptera exigua (lesser army worm - larvae). In words: Residual test on lesser army worm larvae (SP), Cotton leaf, mortality. The following applies: 48 h, read-out: SP grading of mortality. In a few lines:
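Product dissolved in acetone and diluted in water with 0.01% wetting agent to 500, 250 or 100 ppm; larvae and/or cotton leaf host treated. Mortality or knockdown scored one to three days later and graded A (80-100%), B (50-79%) or C (<50%).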

Test [9] concerns Diabrotica balteata (rootworm larvae). In words: Residual test on rootworm larvae (DB), Filter paper/maize seed, mortality. The following applies: 48 h, read-out: DB grading of mortality. The method in brief:
as §1

`C=C(C)C(C(=O)OCc1c(F)c(F)c(COC)c(F)c1F)c1cnc(C(C)(C)C)nc1` (racemic) [Compound 202, 2,3,5,6-tetrafluoro-4-(methoxymethyl)benzyl (RS)-2-[2-(1,1-dimethylethyl)pyrimidin-5-yl]-3-methylbut-3-enoate]: the mortality at 500 ppm in test [1] (500 ppm, contact, 3 days) was 80 to 100%; in test [2] (500 ppm, contact, 6 days), less than 50%; in the test on Myzus persicae (aphids) (500 ppm, contact, 3 days) it was 80 to 100%; in test [3] (500 ppm, contact, 2 days), 80 to 100%; in test [5] (500 ppm, contact, 3 days), less than 50%; in [6] (500 ppm, contact, 2 days), less than 50%. The mortality at 500 ppm was 50 to 79% in test [7]; 80 to 100% in [8] (500 ppm, residual, 2 days); less than 50% in test [9] (500 ppm, residual, 2 days). Further, the pest or weed control at 500 ppm in [4] lay within 80 to 100%.
As for `CN(C)c1ncc(C(C(=O)OCc2ccc(F)c(Oc3ccccc3)c2)C(C)(C)C)cn1` (racemic) [Compound 200, 4-fluoro-3-phenoxybenzyl (RS)-2-[2-(N,N-dimethylamino)pyrimidin-5-yl]-3,3-dimethylbutanoate], the mortality at 500 ppm in [1] (500 ppm, contact, 3 days) was 80 to 100%; in [2] (500 ppm, contact, 6 days), less than 50%; in the test on Myzus persicae (aphids) (500 ppm, contact, 3 days) it was 80 to 100%; in test [3] (500 ppm, contact, 2 days), 80 to 100%; in [5] (500 ppm, contact, 3 days), less than 50%; in test [6] (500 ppm, contact, 2 days), less than 50%. Moreover, the mortality at 500 ppm is 80 to 100% in test [7]; 80 to 100% in test [8] (500 ppm, residual, 2 days); less than 50% in test [9] (500 ppm, residual, 2 days). Also, in [4], the pest or weed control at 500 ppm lay in the range of 80 to 100%.
With `CC(OC(=O)C(c1cnc(C2CC2)nc1)C(C)(C)C)c1cccc(Oc2ccccc2)n1` (racemic) [Compound 78, RS-1-(6-phenoxypyrid-2-yl)ethyl (RS)-2-(2-cyclopropylpyrimidin-5-yl)-3,3-dimethylbutanoate], the mortality at 500 ppm in test [1] (500 ppm, contact, 3 days) is 80 to 100%; in [2] (500 ppm, contact, 6 days), 50 to 79%; in the test with Myzus persicae (aphids) (500 ppm, contact, 3 days) it was 80 to 100%; in [3] (500 ppm, contact, 2 days) it was 80 to 100%; in [5] (500 ppm, contact, 3 days), less than 50%; in test [6] (500 ppm, contact, 2 days) it was 50 to 79%. For the same compound, the mortality at 500 ppm lay within 80 to 100% in test [7]; 80 to 100% in test [8] (500 ppm, residual, 2 days); 80 to 100% in test [9] (500 ppm, residual, 2 days). The pest or weed control at 500 ppm in [4] is 80 to 100%.
`CC(C)c1ncc(C(C(=O)OCc2ccc(F)c(Oc3ccccc3)c2)C(C)(C)C)cn1` (racemic) [Compound 197, 4-fluoro-3-phenoxybenzyl (RS)-2-[2-(1-methylethyl)pyrimidin-5-yl]-3,3-dimethylbutanoate]: the mortality at 500 ppm in [1] (500 ppm, contact, 3 days) was 80 to 100%; in [2] (500 ppm, contact, 6 days) it was 80 to 100%; with Myzus persicae (aphids) (500 ppm, contact, 3 days), 80 to 100%; in test [3] (500 ppm, contact, 2 days), 80 to 100%; in test [5] (500 ppm, contact, 3 days), less than 50%; in [6] (500 ppm, contact, 2 days) it was less than 50%. In addition, the mortality at 500 ppm in [7] lay within 80 to 100%; in test [8] (500 ppm, residual, 2 days) it was 80 to 100%; in test [9] (500 ppm, residual, 2 days) it was 80 to 100%. The pest or weed control at 500 ppm in test [4] was in the range of 80 to 100%.
Consider `CC(C)(C)C(C(=O)OCc1ccc(F)c(Oc2ccccc2)c1)c1cnc(C2CC2)nc1` (racemic) [Compound 201, 4-fluoro-3-phenoxybenzyl (RS)-2-(2-cyclopropylpyrimidin-5-yl)-3,3-dimethylbutanoate], for which the mortality at 500 ppm lay within 80 to 100% in [1] (500 ppm, contact, 3 days); 50 to 79% in [2] (500 ppm, contact, 6 days); 80 to 100% in the test on Myzus persicae (aphids) (500 ppm, contact, 3 days); 80 to 100% in [3] (500 ppm, contact, 2 days); 80 to 100% in test [5] (500 ppm, contact, 3 days); 50 to 79% in test [6] (500 ppm, contact, 2 days). In addition, the mortality at 500 ppm in test [7] was in the range of 80 to 100%; in test [8] (500 ppm, residual, 2 days), 80 to 100%; in test [9] (500 ppm, residual, 2 days), 80 to 100%. For the same compound, in test [4], the pest or weed control at 500 ppm was in the range of 80 to 100%.
`COc1c(F)c(COc2ccccc2)c(F)c(F)c1COC(=O)C(c1cnc(C(C)(C)C)nc1)C(C)(C)C` (racemic) [Compound 193, 2,3,5-trifluoro-6-methoxy-4-(phenoxymethyl)benzyl (RS)-2-[2-(1,1-dimethylethyl)pyrimidin-5-yl]-3,3-dimethylbutanoate]: the mortality at 500 ppm in test [1] (500 ppm, contact, 3 days) was 80 to 100%; in test [2] (500 ppm, contact, 6 days), less than 50%; in the test with Myzus persicae (aphids) (500 ppm, contact, 3 days), 80 to 100%; in test [3] (500 ppm, contact, 2 days) it was 50 to 79%; in [5] (500 ppm, contact, 3 days), less than 50%; in test [6] (500 ppm, contact, 2 days), less than 50%. Moreover, the mortality at 500 ppm was less than 50% in test [7]; 80 to 100% in test [8] (500 ppm, residual, 2 days); less than 50% in test [9] (500 ppm, residual, 2 days). Besides, the pest or weed control at 500 ppm in [4] is less than 50%.
For the compound `CCOc1c(F)c(COc2ccccc2)c(F)c(F)c1COC(=O)C(c1cnc(C(C)(C)C)nc1)C(C)(C)C` (racemic) [Compound 194, 2,3,5-trifluoro-6-ethoxy-4-(phenoxymethyl)benzyl (RS)-2-[2-(1,1-dimethylethyl)pyrimidin-5-yl]-3,3-dimethylbutanoate], the mortality at 500 ppm in [1] (500 ppm, contact, 3 days) is 80 to 100%; in [2] (500 ppm, contact, 6 days), less than 50%; with Myzus persicae (aphids) (500 ppm, contact, 3 days), less than 50%; in [3] (500 ppm, contact, 2 days) it was less than 50%; in test [5] (500 ppm, contact, 3 days), less than 50%; in test [6] (500 ppm, contact, 2 days), less than 50%. The mortality at 500 ppm is less than 50% in test [7]; 80 to 100% in test [8] (500 ppm, residual, 2 days); less than 50% in test [9] (500 ppm, residual, 2 days). In addition, the pest or weed control at 500 ppm in test [4] was less than 50%.
With `CC[Si](CC)(CC)CCCc1c(F)c(F)c(COC(=O)C(c2cnc(C(C)(C)C)nc2)C(C)(C)C)c(F)c1F` (racemic) [Compound 218, 4-[3-(triethylsilyl)prop-1-yl]-2,3,5,6-tetrafluorobenzyl (RS)-2-[2-(1,1-dimethylethyl)pyrimidin-5-yl]-3,3-dimethylbutanoate], the mortality at 500 ppm was 80 to 100% in test [1]; less than 50% in [2]; 80 to 100% in the test with Myzus persicae (aphids); 80 to 100% in test [3]; less than 50% in [5]; less than 50% in test [6]. Moreover, the mortality at 500 ppm in test [7], in test [8] and in [9] was less than 50% throughout. Further, in test [4], the pest or weed control at 500 ppm was less than 50%.
Regarding `CSCc1c(F)c(F)c(COC(=O)C(c2cnc(C(C)(C)C)nc2)C(C)(C)C)c(F)c1F` (racemic) [Compound 169, 4-(methylthiomethyl)-2,3,5,6-tetrafluorobenzyl (RS)-2-[2-(1,1-dimethylethyl)pyrimidin-5-yl]-3,3-dimethylbutanoate], the mortality at 500 ppm in [1] (500 ppm, contact, 3 days) was 80 to 100%; in test [2] (500 ppm, contact, 6 days), 80 to 100%; in the test with Myzus persicae (aphids) (500 ppm, contact, 3 days), 80 to 100%; in [3] (500 ppm, contact, 2 days), 80 to 100%; in test [5] (500 ppm, contact, 3 days), 80 to 100%; in test [6] (500 ppm, contact, 2 days), less than 50%. In addition, the mortality at 500 ppm is less than 50% in test [7]; 80 to 100% in test [8] (500 ppm, residual, 2 days); less than 50% in [9] (500 ppm, residual, 2 days). In [4], the pest or weed control at 500 ppm lay within 80 to 100%.
Consider `CCOCc1c(F)c(F)c(COC(=O)C(c2cnc(C(C)(C)C)nc2)C(C)(C)C)c(OC)c1F` (racemic) [Compound 187, 2,3,5-trifluoro-6-methoxy-4-(ethoxymethyl)benzyl (RS)-2-[2-(1,1-dimethylethyl)pyrimidin-5-yl]-3,3-dimethylbutanoate], for which the mortality at 500 ppm in test [1] (500 ppm, contact, 3 days) was 80 to 100%; in [2] (500 ppm, contact, 6 days), less than 50%; in the test on Myzus persicae (aphids) (500 ppm, contact, 3 days), 80 to 100%; in test [3] (500 ppm, contact, 2 days), 80 to 100%; in [5] (500 ppm, contact, 3 days), 50 to 79%; in test [6] (500 ppm, contact, 2 days) it was less than 50%. The mortality at 500 ppm in test [7] was 50 to 79%; in test [8] (500 ppm, residual, 2 days), 80 to 100%; in [9] (500 ppm, residual, 2 days) it was less than 50%. In test [4], the pest or weed control at 500 ppm was in the range of 80 to 100%.
